Where a SMILES comes first, the peptide text is derived from it. Where no end group is shown, it is not given here. [ ]: non-standard residue; d: D form. NMeY = CN[C@@H](Cc1ccc(O)cc1)C(=O)O
Tests used:
[1] = Pharmacokinetic characteristics in rats after intravenous administration (plasma, LC-MS/MS); assay type: in vivo; conditions: SD rats, intravenous (tail vein), 10 mg/kg; for MRT inf: rat
Protocol: Experimental Example 2: Pharmacokinetic Characteristics of Various Compounds in Rats
Intravenous administration: Three SD rats per group were administered the compounds of Example 1, Example 2, Example 3, Example 6, Example 7, Example 17, and Example 19 via the tail vein, respectively, at a dose of 10 mg/kg. all SD rats were allowed free access to food and water after administration. Plasma was collected 3 min, 10 min, 30 min, 1 h, 2 h, 6 h, 10 h, and 24 h after administration, with 3 rats per time point.
Sample processing: Whole blood was anticoagulated with EDTA-K2. Within 30 minutes of collection, the blood was centrifuged at 3000 g for 10 minutes at 2-8 °C. After centrifugation, the separated plasma was transferred to new 1.5 mL centrifuge tubes and stored at −80 °C.
Analytical method: The concentrations of each compounds in rat plasma were determined by LC-MS/MS using Shimadzu LC30AD and AB Sciex QTRAP 6500+instruments. The relevant pharmacokinetic parameters after administration were calculated.

PC-12 cells = assay: Cell viability of PC-12 neural cells under glutamate stimulation (excitotoxic cell death model, propidium iodide/Hoechst staining); assay type: cell-based, rat; conditions: for Normalized cell viability (%): 10 nM compound, 30 min pretreatment, then glutamate stimulation 24 h, normalized to positive control MK-801; for EC50: dose-response relationship in promoting the viability of PC-12 neurons, glutamate stimulation
Protocol: 1.1. Culture of PC-12 Cell Line and Establishment of Excitotoxic Cell Death Model
PC-12 cells (a […] cell line derived from rat adrenal medulla) were cultured in DMEM/F12 complete medium until eaching 80-90% confluence. The cells were then digested, collected, resuspended, and seeded at density of 5×10^4 cells per well in a 24-well plate precoated with coverslips. Following 26 hours of cell culture, excitotoxic cell death was induced by glutamate stimulation. For model establishment: an appropriate amount of glutamate was weighed and dissolved in DMEM/F12 medium to prepare a stock solution. After filtration, the stock solution was diluted with culture medium and administered to the cells via medium replacement. The cells were further incubated for 24 hours after administration.
1.2 Administration of Small Molecules
Prior to glutamate modeling, cells incubated as described in the previous step were pretreated with 10 nM of the polypeptide compound according to the present application for 30 minutes, followed by glutamate stimulation.
1.3. Propidium Iodide Staining
Cells treated with the polypeptide compound according to the present application were stained with propidium iodide to assess cell death. After discarding the culture medium, the cells were washed with PBS, and propidium iodide/Hoechst was added. After incubating for 30 minutes, the cells were removed and the staining solution was discarded. After washing with PBS, the cells were fixed and mounted, and subjected to image acquisition under a fluorescence microscope. The number of propidium iodide-positive cells and Hoechst-positive cells in the acquired images was counted to calculate the cell viability. MK-801 was used as the positive control compound. The normalized cell viability was calculated using the following formula: (cell viability of the compound group −cell viability of the glutamate group)/(cell viability of the positive control group −cell viability of the glutamate group)×100%.
Based on the above dose-response studies of the compound, the inhibitory effects of different small-molecule compounds at the same dose (10 nM) against excitotoxic death in PC-12 neurons cells were further compared.
Based on this, the dose-response relationship of the neuroprotective effect of the polypeptide compounds according to the present application on PC-12 neural cells was analyzed.

CN[C@@H](Cc1ccc(O)cc1)C(=O)NCC(=O)N[C@@H](CCCNC(=N)N)C(=O)N[C@@H](CCCCN)C(=O)N[C@@H](CCCCN)C(=O)N[C@@H](CCCNC(=N)N)C(=O)N[C@@H](CCCNC(=N)N)C(=O)N[C@@H](CCC(N)=O)C(=O)N[C@@H](CCCNC(=N)N)C(=O)N[C@@H](CCCNC(=N)N)C(=O)N[C@@H](CCCNC(=N)N)C(=O)N[C@@H](CCCCN)C(=O)N[C@@H](CCCCN)C(=O)N[C@@H](CC(N)=O)C(=O)N[C@@H](CCCNC(=N)N)C(=O)N[C@@H](CC(N)=O)C(=O)N[C@@H](CCCCN)C(=O)N[C@@H](CC(C)C)C(=O)N[C@@H](CCCNC(=N)N)C(=O)N[C@@H](CCCNC(=N)N)C(=O)N[C@@H](CCC(N)=O)C(=O)N[C@@H](Cc1c[nH]cn1)C(=O)N[C@@H](CO)C(=O)N[C@@H](Cc1ccc(O)cc1)C(=O)O [Example 2] (H-[NMeY]GRKKRRQRRRKKNRNKLRRQHSY-OH)
T1/2 [1]: 1.73 h | Vss [1]: 3.94 L/kg | MRT inf [1]: 1.84 h | Normalized cell viability (%) (PC-12 cells): 65.56% | EC50 (PC-12 cells): 12.6 nM

CN[C@@H](Cc1ccc(O)cc1)C(=O)NCC(=O)N[C@@H](CCCNC(=N)N)C(=O)N[C@@H](CCCCN)C(=O)N[C@@H](CCCCN)C(=O)N[C@@H](CCCNC(=N)N)C(=O)N[C@@H](CCCNC(=N)N)C(=O)N[C@@H](CCC(=O)O)C(=O)N[C@@H](CCCNC(=N)N)C(=O)N[C@@H](CCCNC(=N)N)C(=O)N[C@@H](CCCNC(=N)N)C(=O)N[C@@H](CCCCN)C(=O)N[C@@H](CCCCN)C(=O)N[C@@H](CC(=O)O)C(=O)N[C@@H](CCCNC(=N)N)C(=O)N[C@@H](CC(=O)O)C(=O)N[C@@H](CCCCN)C(=O)N[C@@H](CC(C)C)C(=O)N[C@@H](CCCNC(=N)N)C(=O)N[C@@H](CCCNC(=N)N)C(=O)N[C@@H](CCC(=O)O)C(=O)N[C@@H](Cc1c[nH]cn1)C(=O)N[C@@H](CO)C(=O)N[C@@H](Cc1ccc(O)cc1)C(N)=O [Example 19] (H-[NMeY]GRKKRRERRRKKDRDKLRREHSY-NH2)
T1/2 [1]: 1.16 h | Vss [1]: 9.11 L/kg | MRT inf [1]: 1.73 h | Normalized cell viability (%) (PC-12 cells): 87.71%

Ac-YGRKKRRQRRRKKNRNKLRRQHSY-NH2 [Example 7]
T1/2 [1]: 1.51 h | Vss [1]: 3.58 L/kg | MRT inf [1]: 1.93 h | EC50 (PC-12 cells): 8.72 nM

YGRKKRRQRRRKKNRDKLRREHSY [Example 16]
Normalized cell viability (%) (PC-12 cells): 85.15% | EC50 (PC-12 cells): 18.8 nM

YGRKKRRQRRRKKNRNKIRRQHSY-NH2 [Example 12]
Normalized cell viability (%) (PC-12 cells): 58.59%

YGRKKRRQRRRKKNRNKLRRQHSY [Example 1, reference compound]
T1/2 [1]: 0.76 h | Vss [1]: 1.29 L/kg | MRT inf [1]: 0.87 h | Normalized cell viability (%) (PC-12 cells): 41.00% | EC50 (PC-12 cells): 23.6 nM

YGRKKRRQRRRKKNRNKLRRQHSY-NH2 [Example 6]
T1/2 [1]: 1.23 h | Vss [1]: 2.53 L/kg | MRT inf [1]: 1.65 h | EC50 (PC-12 cells): 13.5 nM
